# Test results as given in ChEMBL document CHEMBL1155538 (Bioorg Med Chem Lett, 2010).
# Tests used:
# [1] = Half life in human liver microsomes; format: ADME, Microsome
# [2] = Inhibition of tetrodotoxin-sensitive sodium channel
# [3] = molecular target: Voltage-gated inwardly rectifying potassium channel KCNH2 (Homo sapiens, UniProt Q12809); assay: Displacement of [3H]dofetilide from human ERG
# [4] = molecular target: Sodium-dependent serotonin transporter (Homo sapiens, UniProt P31645); assay: biochemical
# [5] = molecular target: Sodium-dependent noradrenaline transporter (Homo sapiens, UniProt P23975); assay: biochemical
# [6] = molecular target: Sodium-dependent dopamine transporter (Homo sapiens, UniProt Q01959); assay: biochemical
# Sodium-dependent dopamine transporter, sequence (Q01959 whole entry): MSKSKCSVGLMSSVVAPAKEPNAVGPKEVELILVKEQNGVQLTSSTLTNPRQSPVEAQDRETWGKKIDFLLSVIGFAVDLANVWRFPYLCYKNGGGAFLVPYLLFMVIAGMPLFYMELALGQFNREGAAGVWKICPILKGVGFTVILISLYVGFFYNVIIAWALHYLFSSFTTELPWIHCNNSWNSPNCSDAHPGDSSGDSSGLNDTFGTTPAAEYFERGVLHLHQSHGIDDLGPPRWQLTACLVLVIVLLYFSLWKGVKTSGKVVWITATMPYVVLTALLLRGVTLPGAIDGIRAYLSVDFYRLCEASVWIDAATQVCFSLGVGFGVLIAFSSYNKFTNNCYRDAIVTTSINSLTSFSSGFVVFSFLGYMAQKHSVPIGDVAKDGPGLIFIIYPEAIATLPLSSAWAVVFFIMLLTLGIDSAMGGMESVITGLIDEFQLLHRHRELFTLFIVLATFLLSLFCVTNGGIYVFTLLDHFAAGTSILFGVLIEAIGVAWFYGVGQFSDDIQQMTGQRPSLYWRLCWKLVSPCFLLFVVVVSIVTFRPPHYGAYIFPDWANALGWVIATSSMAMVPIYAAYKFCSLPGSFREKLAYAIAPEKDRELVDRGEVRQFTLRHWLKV
# Sodium-dependent serotonin transporter, sequence (P31645 whole entry): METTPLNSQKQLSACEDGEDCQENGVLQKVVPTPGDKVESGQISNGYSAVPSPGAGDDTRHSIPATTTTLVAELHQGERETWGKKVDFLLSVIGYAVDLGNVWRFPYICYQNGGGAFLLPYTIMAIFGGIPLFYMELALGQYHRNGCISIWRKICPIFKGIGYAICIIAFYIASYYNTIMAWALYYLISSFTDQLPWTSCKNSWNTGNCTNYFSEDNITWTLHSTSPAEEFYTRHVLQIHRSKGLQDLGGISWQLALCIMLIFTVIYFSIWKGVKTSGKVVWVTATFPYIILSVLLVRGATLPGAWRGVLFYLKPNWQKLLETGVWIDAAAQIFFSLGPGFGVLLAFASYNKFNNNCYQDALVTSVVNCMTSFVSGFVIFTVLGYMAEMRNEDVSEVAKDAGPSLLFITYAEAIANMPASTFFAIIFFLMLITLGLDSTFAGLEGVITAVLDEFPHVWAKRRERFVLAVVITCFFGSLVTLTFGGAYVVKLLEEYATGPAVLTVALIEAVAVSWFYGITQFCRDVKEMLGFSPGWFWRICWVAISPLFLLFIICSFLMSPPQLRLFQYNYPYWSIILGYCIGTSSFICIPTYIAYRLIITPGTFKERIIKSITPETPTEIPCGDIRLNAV
# Sodium-dependent noradrenaline transporter, sequence (P23975 whole entry): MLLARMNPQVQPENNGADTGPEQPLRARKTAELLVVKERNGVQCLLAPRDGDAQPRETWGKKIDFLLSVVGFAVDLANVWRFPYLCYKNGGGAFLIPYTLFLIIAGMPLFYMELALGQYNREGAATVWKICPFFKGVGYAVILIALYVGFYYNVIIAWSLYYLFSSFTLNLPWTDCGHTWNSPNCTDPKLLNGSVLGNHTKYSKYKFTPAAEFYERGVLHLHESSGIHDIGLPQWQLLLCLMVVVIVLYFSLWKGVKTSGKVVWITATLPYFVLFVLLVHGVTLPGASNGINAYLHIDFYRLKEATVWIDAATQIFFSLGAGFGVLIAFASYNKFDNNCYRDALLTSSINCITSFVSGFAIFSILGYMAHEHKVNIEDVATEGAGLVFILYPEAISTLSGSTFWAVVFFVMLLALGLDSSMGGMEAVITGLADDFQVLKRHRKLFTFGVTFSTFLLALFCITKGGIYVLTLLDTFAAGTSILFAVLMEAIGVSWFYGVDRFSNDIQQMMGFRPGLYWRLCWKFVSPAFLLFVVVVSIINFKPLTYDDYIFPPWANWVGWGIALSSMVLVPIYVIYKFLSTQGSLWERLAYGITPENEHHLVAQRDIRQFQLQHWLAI
# Voltage-gated inwardly rectifying potassium channel KCNH2, sequence (Q12809 whole entry): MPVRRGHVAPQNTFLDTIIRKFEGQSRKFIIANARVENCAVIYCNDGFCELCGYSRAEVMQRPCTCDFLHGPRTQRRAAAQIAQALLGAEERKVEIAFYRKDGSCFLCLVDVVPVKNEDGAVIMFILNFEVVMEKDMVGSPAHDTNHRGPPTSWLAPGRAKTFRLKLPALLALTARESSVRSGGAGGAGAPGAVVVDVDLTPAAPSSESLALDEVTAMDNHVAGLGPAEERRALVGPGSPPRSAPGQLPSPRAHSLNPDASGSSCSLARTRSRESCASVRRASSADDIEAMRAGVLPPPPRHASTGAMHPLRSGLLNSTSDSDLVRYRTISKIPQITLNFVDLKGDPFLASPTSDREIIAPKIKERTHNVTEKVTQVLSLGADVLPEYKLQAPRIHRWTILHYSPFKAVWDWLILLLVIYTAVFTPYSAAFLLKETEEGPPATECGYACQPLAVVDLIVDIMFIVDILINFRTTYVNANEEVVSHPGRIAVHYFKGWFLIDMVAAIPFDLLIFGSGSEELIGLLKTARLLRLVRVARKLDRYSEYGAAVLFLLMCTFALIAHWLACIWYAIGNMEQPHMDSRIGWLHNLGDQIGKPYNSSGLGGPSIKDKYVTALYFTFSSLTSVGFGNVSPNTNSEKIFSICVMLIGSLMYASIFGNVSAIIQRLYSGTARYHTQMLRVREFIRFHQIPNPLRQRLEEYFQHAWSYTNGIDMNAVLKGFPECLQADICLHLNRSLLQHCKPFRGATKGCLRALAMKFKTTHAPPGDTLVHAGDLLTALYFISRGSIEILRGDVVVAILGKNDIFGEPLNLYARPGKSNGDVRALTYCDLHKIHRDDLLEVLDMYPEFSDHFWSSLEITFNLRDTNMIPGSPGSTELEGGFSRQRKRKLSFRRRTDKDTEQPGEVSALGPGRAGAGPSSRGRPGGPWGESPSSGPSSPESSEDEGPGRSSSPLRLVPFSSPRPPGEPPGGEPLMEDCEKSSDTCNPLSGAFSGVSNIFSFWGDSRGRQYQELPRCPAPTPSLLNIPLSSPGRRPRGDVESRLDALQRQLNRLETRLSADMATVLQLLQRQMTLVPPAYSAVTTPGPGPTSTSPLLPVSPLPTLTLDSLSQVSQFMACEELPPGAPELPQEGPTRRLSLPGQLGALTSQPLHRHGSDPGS
Compound,half-life [1] [h],IC50 [2] [µM],IC50 [3] [µM],Ki [4] [µM],Ki [5] [µM],Ki [6] [µM]
CC(C)CN(C(=O)c1cccc(Cl)c1Cl)[C@H]1CCNC1,> 2,8.55,–,–,–,–
c1ccc(C(Cc2cccc3c2OCC3)N2CCNCC2)cc1 (stereo unspecified),–,–,21.4,0.008,0.34,> 3.16
